# Assay results as given in paper PMC9141032 (International Journal of Molecular Sciences, 2022).
# Columns and labels:
# [1] = Stability in mouse plasma; type: in vitro ADME; details: 10 µM, 37 °C
# Procedure: The assessment of the plasma stability avoids misleading in vitro data and complex interpretation of the in vivo PK. […] Then, centrifugation led to a supernatant that was analysed for sample quantification.
# Mouse plasma pooled from healthy donors extracted in citrate tubes was employed in the assay. […] Then, 100 µL of acetonitrile was added to precipitate the plasma protein, and the plate was centrifuged at 46,000× g for 60 min at 5 °C. Supernatant was taken and analysed by UPLC/MS/MS for sample quantification. The stationary phase was a reverse phase Acquity UPLC®BEH C18 1.7 µm (2.1 × 50 mm) (Waters), and the mobile phase was 0.1% formic acid in water/0.1% formic acid in acetonitrile, using a gradient and flow rate of 0.6 mL/min. The chromatographic equipment employed was an UPLC QSM Waters Acquity, and the compound concentrations were calculated from the MS peak areas.
# [2] = Metabolic stability in mouse liver microsomes; details: for % compound remaining: MLM
# Procedure: The final concentration assay was 1
# NADPH in 100 mM potassium phosphate buffer.
# Spectrometer, Metabolite Pilot V 1.5 Software.
# Method: Ionization mode, electrospray positive; adquisition mode, TOF MS with IDA MS/MS; column, Atlantis T3 C18, 2.1 x 15 mm, 3 μm; mobile phase, wa te r: acetonitrile: 0.1%: formic acid; flow rate, 0.3 mL/min; source temperature, 550 °C; column temperature, 25 °C; injection volume, 5 […]
# concentration 1 mg/mL, NADPH 1.3 mM.
# Table S5. Summary of LC‐MS conditions […]
# [3] = tested on: SH-SY5Y cells; test: Nitrite production (Griess) in 6-OHDA-treated SH-SY5Y cells; type: cell-based, human; details: 1 μM, 6-OHDA 25 μM 16 h
# Description: Along with the neuronal loss, neuroinflammation is a process related to the onset of the disease, and it is an important contributor to the pathogenesis and progression of these disorders. […] .
# [4] = In vivo pharmacokinetics in brain; details: male, CD1, mouse, ip, mice, 10 mg/kg intraperitoneal
# Procedure: After treatment, mice were euthanized, and the plasma and brain were collected.
# Male CD1 mice were supplied by the Laboratory Animal Service of the University of Granada (Granada, Spain) and housed in the Animal Facilities of the Center of Biomedical Investigation of the University of Granada. […] Calculations were performed using noncompartmental analysis of plasma data after intraperitoneal injection by means of PK Solver 2.0.
# Basic PK parameters were calculated.
# [5] = set-up: method as in ref 32, 33 = [32]; 32. Escolano C. Pallás M. Griñán-Ferré C. Abás S. Callado L.-F. García-Sevilla J.A. Synthetic I 2 Imidazoline Receptor Ligands for Prevention or Treatment of Human Brain Disorders Patent WO 2019/12185 || [33]; PMID 32150414; doi:10.1021/acs.jmedchem.9b02080; 33. Abás S. Rodríguez-Arévalo S. Bagán A. Griñán-Ferré C. Vasilopoulou F. Brocos-Mosquera I. Muguruza C. Pérez B. Molins E. Luque F.J. Bicyclic α-Iminophosphonates as High Affinity Imidazoline I 2 Rec; details: cited from earlier work
# [6] = set-up: method as in ref 33 = [33]; PMID 32150414; doi:10.1021/acs.jmedchem.9b02080; 33. Abás S. Rodríguez-Arévalo S. Bagán A. Griñán-Ferré C. Vasilopoulou F. Brocos-Mosquera I. Muguruza C. Pérez B. Molins E. Luque F.J. Bicyclic α-Iminophosphonates as High Affinity Imidazoline I 2 Rec; details: previous studies, cited from earlier work
# [7] = tested on: adult rats; set-up: method as in ref 33 = [33]; PMID 32150414; doi:10.1021/acs.jmedchem.9b02080; 33. Abás S. Rodríguez-Arévalo S. Bagán A. Griñán-Ferré C. Vasilopoulou F. Brocos-Mosquera I. Muguruza C. Pérez B. Molins E. Luque F.J. Bicyclic α-Iminophosphonates as High Affinity Imidazoline I 2 Rec; details: 20 and 35 mg/kg intraperitoneally, 1 and 2 h postinjection; cited from earlier work
# [8] = tested on: SAMP8 murine model; details: cited from earlier work
# [9] = tested on: 5xFAD murine model; set-up: method as in ref 32, 33 = [32]; 32. Escolano C. Pallás M. Griñán-Ferré C. Abás S. Callado L.-F. García-Sevilla J.A. Synthetic I 2 Imidazoline Receptor Ligands for Prevention or Treatment of Human Brain Disorders Patent WO 2019/12185 || [33]; PMID 32150414; doi:10.1021/acs.jmedchem.9b02080; 33. Abás S. Rodríguez-Arévalo S. Bagán A. Griñán-Ferré C. Vasilopoulou F. Brocos-Mosquera I. Muguruza C. Pérez B. Molins E. Luque F.J. Bicyclic α-Iminophosphonates as High Affinity Imidazoline I 2 Rec; details: 5 mg/kg in drinking water, 4 weeks; cited from earlier work
# [10] = tested on: SH-SY5Y cells; test: Cytotoxicity in SH-SY5Y cells (MTT); details: 24 h, 0.2 to 20 μM
# [11] = tested on: SH-SY5Y cells; test: Protection of SH-SY5Y cells from 6-OHDA-induced death (MTT); details: 6-OHDA 25 μM 16 h
# [12] = tested on: primary microglial cells; test: Nitrite production (Griess) in LPS-treated primary microglia; details: 1 μM 1 h, then LPS 10 μg/mL 24 h
# [13] = tested on: primary astrocytes; test: Nitrite production (Griess) in LPS-treated primary astrocytes; details: 1 μM 1 h, then LPS 10 μg/mL 24 h
# [14] = tested on: SH-SY5Y cells; test: Active caspase 3 in 6-OHDA-treated SH-SY5Y cells (immunodetection, Western blot); details: 1 μM, 16 h after 6-OHDA
smiles,measurement,setting,value
"CCOP(=O)(OCC)[C@]1(c2ccccc2)N=C[C@H]2C(=O)N(c3ccc(F)c(Cl)c3)C(=O)[C@H]21 (racemic) [B06, diethyl (1RS,3aSR,6aSR)-5-(3-chloro-4-fluorophenyl)-4,6-dioxo-1-phenyl-1,3a,4,5,6,6a-hexahydropyrrolo[3,4-c]pyrrole-1-phosphonate]",remaining percentage in mouse plasma,[1]; 0 min,100%
same,remaining percentage in mouse plasma,[1]; 10 min,100%
same,remaining percentage in mouse plasma,[1]; 20 min,69.7%
same,remaining percentage in mouse plasma,[1]; 40 min,48.3%
same,remaining percentage in mouse plasma,[1]; 60 min,21.6%
same,% compound remaining,"[2]; minus NADPH, 0 min",105.00 ± 23.97%
same,% compound remaining,"[2]; minus NADPH, 60 min",83.20 ± 2.87%
same,% compound remaining,"[2]; plus NADPH, 0 min",100.00 ± 25.58%
same,% compound remaining,"[2]; plus NADPH, 5 min",135.00 ± 7.06%
same,% compound remaining,"[2]; plus NADPH, 15 min",67.50 ± 4.15%
same,% compound remaining,"[2]; plus NADPH, 30 min",30.30 ± 5.28%
same,% compound remaining,"[2]; plus NADPH, 45 min",15.20 ± 1.98%
same,% compound remaining,"[2]; plus NADPH, 60 min",6.08 ± 0.01%
same,half-life at 1 μM,"[2]; mouse, microsomes",16.2 min
same,effect on nitrite production,[3],significantly reversed the increase in nitrite production
same,AUC(0-inf),[4]; in vivo,3310 ng·h/mL
same,Cmax,[4]; in vivo,128 ± 66 ng/mL
same,Tmax,[4]; in vivo,15 min
same,AUC(0-t),"[4]; in vivo, read-out: AUC0–480 (converted)",2320 ng·h/mL
same,half-life,[4],257 min
same,Pe value in PAMPA (BBB permeation),[5],well above the threshold established for high BBB permeation
same,mice microsomal percentage remanent,[6]; 60 min,65.08%
same,t ½ in mice microsomes,[6],91.72 min
same,effect on body temperature,[7],hypothermia
same,effect on cognition and behaviour,[8],improving cognition and ameliorating anxiety-like behaviour
same,effect on cognition,[9],improving cognition and ameliorating the neurodegenerative condition
same,cytotoxic effect on cell cultures (MTT),[10],None of the concentrations used were cytotoxic
same,protection from 6-OHDA-induced cell death,"[11]; 1 μM, 1 h pre-treatment",significantly rescued human dopaminergic cells from 6-OHDA-induced apoptosis
same,lowest concentration at which the most beneficial effect was obtained,"[11]; dose-response, MTT",1 µM
same,effect on nitrite production,[12],significant decrease in nitrite production
same,effect on nitrite production,[13],significant decrease in nitrite production
same,effect on 6-OHDA-induced increase of cells expressing active caspase 3,[14],this effect was reversed by the treatment with B06
